Measurements as given in patent US4120892A, “Anionic naphthalene thioureido naphthalene sulfonic acids” (American Cyanamid Company, priority 1977, dated 1978).
Counter-ions that a name gives are not always drawn. Like-named read-outs stand apart in the source and are kept apart here.

Columns and labels:
[1] = reported in The New England Journal of Medicine, 286, 808-812 (1972); cited from earlier work
[2] = test system: late components of human complement (C3-C9); experiment: Test, Code 035 (C3-C9 inhibitor; C-Late); type: cell-based; conditions: activity in wells, two-fold serial dilution assay; higher well number indicates higher activity
From the text: (§1) An active inhibitor protects C2 from C1 and C4; (ii) Test, Code 035 (C3-C9 inhibitor -- This test determines the ability of the late components of human complement (C3-C9) to lyse EAC 142 in the presence of appropriate dilutions of the test compound. An active inhibitor protects EAC 142 from lysis by human C3-C9; (iii) Test, Code 036 (C-Shunt inhibitor) -- In this test human erythrocytes rendered fragile are lysed in autologous serum via the shunt pathway activated by cobra venom factor in the presence of appropriate dilutions of the test compound. Inhibition of the shunt pathway results in failure of lysis; (iv) Forssman Vasculitis Test -- Here, the well known complement dependent lesion, Forssman vasculitis, is produced in guinea pigs by intradermal injection of rabbit anti-Forssman antiserum. […]
(§2) With reference to Table I, guinea pigs weighing about 300 g were dosed intravenously (i.v.) or intraperitoneally (i.p.) with 200 mg/kg of the test compound dissolved in saline and adjusted to pH 7-8. […] Percent inhibition was calculated by comparison with simultaneous controls. […]

[3] = test system: whole complement; experiment: In vivo complement inhibition in guinea pigs (serum whole complement, capillary tube assay); conditions: Cavia porcellus, ip, guinea pig, intraperitoneal
From the text: An active inhibitor protects C2 from C1 and C4; (ii) Test, Code 035 (C3-C9 inhibitor -- This test determines the ability of the late components of human complement (C3-C9) to lyse EAC 142 in the presence of appropriate dilutions of the test compound. An active inhibitor protects EAC 142 from lysis by human C3-C9; (iii) Test, Code 036 (C-Shunt inhibitor) -- In this test human erythrocytes rendered fragile are lysed in autologous serum via the shunt pathway activated by cobra venom factor in the presence of appropriate dilutions of the test compound. Inhibition of the shunt pathway results in failure of lysis; (iv) Forssman Vasculitis Test -- Here, the well known complement dependent lesion, Forssman vasculitis, is produced in guinea pigs by intradermal injection of rabbit anti-Forssman antiserum. The lesion is measured in terms of diameter, edema and hemorrhage and the extent to which a combined index of these is inhibited by prior intraperitoneal injection of the test compound at 200 mg/kg is then reported, unless otherwise stated; (v) Forssman Shock Test -- Lethal shock is produced in guinea pigs by an i.v. injection of anti-Forssman antiserum and the harmonic mean death time of treated guinea pigs is compared with that of simultaneous controls; (vi) Complement Level Reduction Test -- In this test, the above dosed guinea pigs, or others, are bled for serum and the complement level is determined in undiluted serum by the capillary tube method of U.S. Pat. No. 3,876,376 and compared to undosed control guinea pigs; and (vii) Cap 50 Test -- Here, appropriate amounts of the test compound are added to a pool of guinea pig serum in vitro, after which the undiluted serum capillary tube assay referred to above is run. The concentration of compound inhibiting 50% is reported.
as §2

[4] = test system: human C1; experiment: Test, Code 026 (C1 inhibitor); type: biochemical; conditions: activity in wells, two-fold serial dilution assay; higher well number indicates higher activity
From the text: as §1, §2

[5] = test system: shunt pathway; experiment: Test, Code 036 (C-Shunt inhibitor); type: cell-based, human; conditions: activity in wells, two-fold serial dilution assay; higher well number indicates higher activity
From the text: as §1, §2

[6] = test system: complement system; conditions: reported in the literature; cited from earlier work

Compound	treatment of hereditary angioneurotic edema [1]	anticomplementary effect / complement inhibition [6]	further results
NC[C@H]1CC[C@H](C(=O)O)CC1 [tranexamic acid]	used with success in the treatment of hereditary angioneurotic edema		
O=S(=O)(O)c1cc(NC(=S)Nc2cc(S(=O)(=O)O)c3cc(NC(=S)Nc4cc(S(=O)(=O)O)cc5cc(S(=O)(=O)O)cc(S(=O)(=O)O)c45)cc(S(=O)(=O)O)c3c2)c2c(S(=O)(=O)O)cc(S(=O)(=O)O)cc2c1 [8,8'-[4,8-Disulfo-2,6-naphthylenebis(2-thioureylene)]-di-1,3,6-naphthalenetrisulfonic acid octasodium salt]			C-Late 035 Wells [2]: +2 Wells; inhibition at 200 mg/kg ([3]; 0.5 h, 30 minutes, read-out: In Vivo Activity (Guinea Pig) % Inhibition, Intraperitoneal, 30 minutes): -86%; inhibition at 200 mg/kg ([3]; 1 h, 60 minutes, read-out: In Vivo Activity (Guinea Pig) % Inhibition, Intraperitoneal, 60 minutes): -84%; inhibition at 200 mg/kg ([3]; 2 h, 120 minutes, read-out: In Vivo Activity (Guinea Pig) % Inhibition, Intraperitoneal, 120 minutes): -93%; Cl 026 Wells [4]: +5 Wells; Shunt Inhibition 036 Wells [5]: +2 Wells
Nc1ccc2cc(S(=O)(=O)O)cc(O)c2c1N=Nc1ccc(NC(=O)Nc2ccc(N=Nc3c(N)ccc4cc(S(=O)(=O)O)cc(O)c34)c(S(=O)(=O)O)c2)cc1S(=O)(=O)O [chlorazol fast pink, 3,3'-ureylenebis-[6-(2-amino-8-hydroxy-6-sulfo-1-naphthylazo)]benzenesulfonic acid, tetrasodium salt]		anticomplementary effect	
8-(3-benzamido-4-methylbenzamido)naphthalene-1,3,5-trisulfonic acid [Suramin]	used with success in the treatment of hereditary angioneurotic edema	competitive inhibitor of the complement system	
NCCCCCC(=O)O [epsilon-aminocaproic acid]	used with success in the treatment of hereditary angioneurotic edema		
heparin		anticomplementary effect	
